From PubChem BioAssay AID248 (DTP/NCI, 2004)
Values joined by “and” are separate entries in the source; they are usually repeats but may differ in a detail not shown here. Equal entries are not always repeated. Inconclusive results and toxic doses are left out. Cut-off read from the data, not from the text of the source: active = T/C of 150% or more; inactive = T/C below 125%.

Tested on: L1210 leukemia ip in BDF1 mice, survival T/C
Assay: NCI In Vivo Anticancer Drug Screen. Data for tumor model L1210 Leukemia (intraperitoneal) in B6D2F1 (BDF1) mice
Conditions: higher = longer survival
Procedure, shortened: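 Transplanted-tumor mice were given test agent; controls received vehicle only. Survival readings from the two groups were divided (treated over control).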

Measured: T/C

CC(CN1CC(=O)NC(=O)C1)N1CC(=O)NC(=O)C1 (stereo not drawn)
active: endpoint: mean survival time, dose: 1.6 mg/kg/injection, schedule: Q03HX024 (ip), vehicle: steriod suspending solution 156 % of control | endpoint: mean survival time, dose: 12.5 mg/kg/injection, schedule: Q01DX009 (oral), vehicle: steriod suspending solution 156 % of control | endpoint: mean survival time, dose: 12.5 mg/kg/injection, schedule: Q01DX Z (ip), vehicle: steriod suspending solution 154 % of control | endpoint: mean survival time, dose: 18.0 mg/kg/injection, schedule: Q01DX009 (ip), vehicle: saline 151 % of control | endpoint: mean survival time, dose: 25.0 mg/kg/injection, schedule: Q03HX008 (ip), vehicle: steriod suspending solution 155 % of control | endpoint: mean survival time, dose: 27.0 mg/kg/injection, schedule: Q01DX009 (ip), vehicle: saline 155 % of control | endpoint: mean survival time, dose: 60.0 mg/kg/injection, schedule: Q01DX009 (ip), vehicle: saline with Tween-80 156 % of control | endpoint: mean survival time, dose: 100.0 mg/kg/injection, schedule: Q04DX003 (ip), vehicle: steriod suspending solution 151 % of control | endpoint: mean survival time, dose: 100.0 mg/kg/injection, schedule: Q08DX002 (ip), vehicle: steriod suspending solution 151 % of control | endpoint: mean survival time, dose: 128.0 mg/kg/injection, schedule: Q04DX003 (oral), vehicle: saline with Tween-80 155 % of control | endpoint: mean survival time, dose: 200.0 mg/kg/injection, schedule: Q04DX003 (oral), vehicle: steriod suspending solution 153 % of control | endpoint: mean survival time, dose: 400.0 mg/kg/injection, schedule: Q04DX003 (oral), vehicle: steriod suspending solution 155 % of control | endpoint: mean survival time, dose: 400.0 mg/kg/injection, schedule: Q08DX002 (ip), vehicle: steriod suspending solution 156 % of control | endpoint: mean survival time, dose: 512.0 mg/kg/injection, schedule: Q04DX003 (ip), vehicle: saline with Tween-80 155 % of control | endpoint: mean survival time, dose: 800.0 mg/kg/injection, schedule: Q04DX003 (ip), vehicle: Klucel (hydroxypropylcellulose) (HPC) 154 % of control | endpoint: median survival time, dose: 4.0 mg/kg/injection, schedule: Q03HX024 (ip), vehicle: Klucel (hydroxypropylcellulose) (HPC) 153 % of control | endpoint: median survival time, dose: 8.0 mg/kg/injection, schedule: Q03HX008 (ip), vehicle: saline with Tween-80 156 % of control | endpoint: median survival time, dose: 12.5 mg/kg/injection, schedule: Q01DX009 (ip), vehicle: Klucel (hydroxypropylcellulose) (HPC) 150 % of control | endpoint: median survival time, dose: 12.5 mg/kg/injection, schedule: Q03HX008 (ip), vehicle: Klucel (hydroxypropylcellulose) (HPC) 150 % of control | endpoint: median survival time, dose: 16.0 mg/kg/injection, schedule: Q03HX008 (ip), vehicle: saline with Tween-80 154 % of control | endpoint: median survival time, dose: 25.0 mg/kg/injection, schedule: Q01DX009 (ip), vehicle: Klucel (hydroxypropylcellulose) (HPC) 150 % of control | endpoint: median survival time, dose: 25.0 mg/kg/injection, schedule: Q03HX008 (ip), vehicle: Klucel (hydroxypropylcellulose) (HPC) 151 % of control and 155 % of control | endpoint: median survival time, dose: 45.0 mg/kg/injection, schedule: Q03HX024 (ip), vehicle: Klucel (hydroxypropylcellulose) (HPC) 155 % of control | endpoint: median survival time, dose: 64.0 mg/kg/injection, schedule: Q03HX008 (ip), vehicle: saline with Tween-80 156 % of control | endpoint: median survival time, dose: 168.0 mg/kg/injection, schedule: Q04DX003 (ip), vehicle: Klucel (hydroxypropylcellulose) (HPC) 152 % of control and 155 % of control | endpoint: median survival time, dose: 200.0 mg/kg/injection, schedule: Q01DX001 (ip), vehicle: steriod suspending solution 155 % of control | endpoint: median survival time, dose: 400.0 mg/kg/injection, schedule: Q01DX001 (ip), vehicle: steriod suspending solution 150 % of control and 155 % of control | endpoint: median survival time, dose: 512.0 mg/kg/injection, schedule: Q08DX002 (ip), vehicle: saline with Tween-80 150 % of control
inactive: endpoint: mean survival time, dose: 1.6 mg/kg/injection, schedule: Q03HX016 (oral), vehicle: steriod suspending solution 122 % of control | endpoint: mean survival time, dose: 1.6 mg/kg/injection, schedule: Q03HX024 (oral), vehicle: steriod suspending solution 124 % of control | endpoint: mean survival time, dose: 6.25 mg/kg/injection, schedule: Q03HX008 (ip), vehicle: steriod suspending solution 118 % of control | endpoint: mean survival time, dose: 12.5 mg/kg/injection, schedule: Q01DX009 (sc), vehicle: steriod suspending solution 117 % of control | endpoint: mean survival time, dose: 12.5 mg/kg/injection, schedule: Q03HX024 (oral), vehicle: steriod suspending solution 101 % of control | endpoint: mean survival time, dose: 12.5 mg/kg/injection, schedule: Q04DX003 (ip), vehicle: steriod suspending solution 109 % of control | endpoint: mean survival time, dose: 25.0 mg/kg/injection, schedule: Q04DX003 (ip), vehicle: Klucel (hydroxypropylcellulose) (HPC) 109 % of control | endpoint: mean survival time, dose: 25.0 mg/kg/injection, schedule: Q04DX003 (ip), vehicle: steriod suspending solution 103 % of control | endpoint: mean survival time, dose: 25.0 mg/kg/injection, schedule: Q04DX003 (iv), vehicle: water 113 % of control and 122 % of control | endpoint: mean survival time, dose: 25.0 mg/kg/injection, schedule: Q04DX003 (oral), vehicle: steriod suspending solution 115 % of control | endpoint: mean survival time, dose: 32.0 mg/kg/injection, schedule: Q04DX003 (ip), vehicle: saline with Tween-80 104 % of control | endpoint: mean survival time, dose: 50.0 mg/kg/injection, schedule: Q01DX001 (ip), vehicle: saline 107 % of control | endpoint: mean survival time, dose: 50.0 mg/kg/injection, schedule: Q01DX001 (ip), vehicle: steriod suspending solution 107 % of control | endpoint: mean survival time, dose: 50.0 mg/kg/injection, schedule: Q01DX009 (oral), vehicle: steriod suspending solution 98 % of control and 121 % of control | endpoint: mean survival time, dose: 50.0 mg/kg/injection, schedule: Q03HX024 (ip), vehicle: steriod suspending solution 104 % of control | endpoint: mean survival time, dose: 50.0 mg/kg/injection, schedule: Q04DX003 (ip), vehicle: steriod suspending solution 100 % of control | endpoint: mean survival time, dose: 50.0 mg/kg/injection, schedule: Q04DX003 (iv), vehicle: water 112 % of control and 115 % of control and 122 % of control | endpoint: mean survival time, dose: 50.0 mg/kg/injection, schedule: Q06HX012 (oral), vehicle: steriod suspending solution 101 % of control | endpoint: mean survival time, dose: 64.0 mg/kg/injection, schedule: Q04DX003 (ip), vehicle: saline with Tween-80 124 % of control | endpoint: mean survival time, dose: 100.0 mg/kg/injection, schedule: Q01DX001 (ip), vehicle: saline 113 % of control | endpoint: mean survival time, dose: 100.0 mg/kg/injection, schedule: Q01DX001 (oral), vehicle: steriod suspending solution 111 % of control | endpoint: mean survival time, dose: 100.0 mg/kg/injection, schedule: Q01DX009 (oral), vehicle: steriod suspending solution 95 % of control and 103 % of control | endpoint: mean survival time, dose: 100.0 mg/kg/injection, schedule: Q01DX Z (ip), vehicle: steriod suspending solution 113 % of control | endpoint: mean survival time, dose: 100.0 mg/kg/injection, schedule: Q04DX003 (iv), vehicle: water 112 % of control and 115 % of control and 119 % of control | endpoint: mean survival time, dose: 100.0 mg/kg/injection, schedule: Q08DX002 (oral), vehicle: steriod suspending solution 122 % of control | endpoint: mean survival time, dose: 120.0 mg/kg/injection, schedule: Q01DX009 (ip), vehicle: saline with Tween-80 118 % of control | endpoint: mean survival time, dose: 128.0 mg/kg/injection, schedule: Q01DX009 (ip), vehicle: saline with Tween-80 112 % of control | endpoint: mean survival time, dose: 200.0 mg/kg/injection, schedule: Q01DX001 (ip), vehicle: saline 120 % of control | endpoint: mean survival time, dose: 200.0 mg/kg/injection, schedule: Q01DX001 (oral), vehicle: steriod suspending solution 107 % of control | endpoint: mean survival time, dose: 200.0 mg/kg/injection, schedule: Q08DX002 (oral), vehicle: steriod suspending solution 120 % of control | endpoint: mean survival time, dose: 240.0 mg/kg/injection, schedule: Q01DX009 (ip), vehicle: saline with Tween-80 96 % of control | endpoint: mean survival time, dose: 400.0 mg/kg/injection, schedule: Q01DX001 (oral), vehicle: steriod suspending solution 114 % of control | endpoint: mean survival time, dose: 400.0 mg/kg/injection, schedule: Q08DX002 (oral), vehicle: steriod suspending solution 119 % of control | endpoint: mean survival time, dose: 800.0 mg/kg/injection, schedule: Q04DX003 (ip), vehicle: water 120 % of control | endpoint: mean survival time, dose: 800.0 mg/kg/injection, schedule: Q08DX002 (ip), vehicle: steriod suspending solution 111 % of control | endpoint: mean survival time, dose: 1024.0 mg/kg/injection, schedule: Q04DX003 (oral), vehicle: saline with Tween-80 120 % of control | endpoint: mean survival time, dose: 2048.0 mg/kg/injection, schedule: Q04DX003 (oral), vehicle: saline with Tween-80 94 % of control | endpoint: median survival time, dose: 8.0 mg/kg/injection, schedule: Q01DX009 (sc), vehicle: saline with Tween-80 120 % of control | endpoint: median survival time, dose: 16.0 mg/kg/injection, schedule: Q03HX024 (ip), vehicle: saline with Tween-80 113 % of control | endpoint: median survival time, dose: 50.0 mg/kg/injection, schedule: Q03HX008 (ip), vehicle: Klucel (hydroxypropylcellulose) (HPC) 115 % of control | endpoint: median survival time, dose: 64.0 mg/kg/injection, schedule: Q01DX001 (ip), vehicle: saline with Tween-80 105 % of control | endpoint: median survival time, dose: 64.0 mg/kg/injection, schedule: Q03HX016 (ip), vehicle: saline with Tween-80 96 % of control | endpoint: median survival time, dose: 64.0 mg/kg/injection, schedule: Q08DX002 (ip), vehicle: saline with Tween-80 109 % of control | endpoint: median survival time, dose: 100.0 mg/kg/injection, schedule: Q01DX001 (ip), vehicle: other 122 % of control | endpoint: median survival time, dose: 100.0 mg/kg/injection, schedule: Q01DX001 (ip), vehicle: steriod suspending solution 122 % of control | endpoint: median survival time, dose: 100.0 mg/kg/injection, schedule: Q04DX003 (ip), vehicle: other 122 % of control | endpoint: median survival time, dose: 108.0 mg/kg/injection, schedule: Q01DX001 (ip), vehicle: Klucel (hydroxypropylcellulose) (HPC) 114 % of control and 120 % of control | endpoint: median survival time, dose: 128.0 mg/kg/injection, schedule: Q01DX001 (ip), vehicle: saline with Tween-80 109 % of control | endpoint: median survival time, dose: 128.0 mg/kg/injection, schedule: Q01DX009 (sc), vehicle: saline with Tween-80 107 % of control | endpoint: median survival time, dose: 128.0 mg/kg/injection, schedule: Q04DX003 (ip), vehicle: saline with Tween-80 124 % of control | endpoint: median survival time, dose: 128.0 mg/kg/injection, schedule: Q08DX002 (ip), vehicle: saline with Tween-80 119 % of control | endpoint: median survival time, dose: 180.0 mg/kg/injection, schedule: Q01DX001 (ip), vehicle: Klucel (hydroxypropylcellulose) (HPC) 118 % of control and 120 % of control | endpoint: median survival time, dose: 256.0 mg/kg/injection, schedule: Q01DX001 (ip), vehicle: saline with Tween-80 113 % of control | endpoint: median survival time, dose: 400.0 mg/kg/injection, schedule: Q04DX003 (ip), vehicle: other 94 % of control | endpoint: median survival time, dose: 700.0 mg/kg/injection, schedule: Q04DX003 (ip), vehicle: Klucel (hydroxypropylcellulose) (HPC) 105 % of control and 106 % of control
